Source: patent US8198273B2, “Compounds and methods for kinase modulation, and indications therefor” (Plexxikon Inc., priority 2009, dated 2012)

Assays:
CYP2D6 = CYP2D6 (Homo sapiens, UniProt P10635); experiment: CYP2D6 inhibition (fluorescent substrate); format: in vitro ADME; details: CYP2D6, AMMC substrate; read-out: Cyp IC50 2D6
Summary of the method: (§1)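 Human CYP activity was followed by the fluorescence of the metabolized product of a known substrate, which falls as metabolism is inhibited. Compounds from 100 mM DMSO stocks were serially diluted 1:1 over 10 points in co-factor mix and preincubated 10 min at 37 °C. IC50 was fitted from signal versus concentration.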

CYP2C19 = CYP2C19 (Homo sapiens, UniProt P33261); experiment: CYP2C19 inhibition (fluorescent substrate); format: in vitro ADME; details: CYP2C19, CEC substrate; read-out: Cyp IC50 2C19
Chain of CYP2C19 (P33261 whole entry): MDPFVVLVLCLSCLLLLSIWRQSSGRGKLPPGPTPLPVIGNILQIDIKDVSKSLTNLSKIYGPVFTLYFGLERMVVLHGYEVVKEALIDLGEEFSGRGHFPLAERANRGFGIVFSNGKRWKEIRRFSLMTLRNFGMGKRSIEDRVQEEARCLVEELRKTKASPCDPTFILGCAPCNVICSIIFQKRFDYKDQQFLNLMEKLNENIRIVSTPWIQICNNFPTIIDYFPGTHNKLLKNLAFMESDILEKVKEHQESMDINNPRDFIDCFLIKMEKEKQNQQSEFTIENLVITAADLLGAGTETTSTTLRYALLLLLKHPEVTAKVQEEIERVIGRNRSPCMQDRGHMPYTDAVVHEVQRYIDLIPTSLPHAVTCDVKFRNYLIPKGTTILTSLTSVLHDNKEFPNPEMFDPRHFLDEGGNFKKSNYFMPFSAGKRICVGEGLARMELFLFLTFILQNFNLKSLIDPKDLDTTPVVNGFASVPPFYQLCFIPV
Summary of the method: as §1

[1] = Relative solubility by turbidity in aqueous buffers of varying pH; format: physicochemical
Summary of the method: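 Turbidity endpoint: concentration where optical density at 490, 535 and 650 nm exceeds 0.01, three-wavelength average used. Buffers at pH 1.5, 4.5, 6.8 and 7.4; DMSO serial dilutions of 25 mM stock spiked 1 μL into 99 μL buffer. Low <31.3, moderate 31.3–250, high >250 μM.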

c-Raf-1 = c-Raf-1 (Homo sapiens, UniProt P04049); experiment: c-Raf-1 biochemical kinase inhibition (AlphaScreen, biotin-MEK1 substrate); details: 100 μM ATP
Chain of c-Raf-1 (P04049 whole entry): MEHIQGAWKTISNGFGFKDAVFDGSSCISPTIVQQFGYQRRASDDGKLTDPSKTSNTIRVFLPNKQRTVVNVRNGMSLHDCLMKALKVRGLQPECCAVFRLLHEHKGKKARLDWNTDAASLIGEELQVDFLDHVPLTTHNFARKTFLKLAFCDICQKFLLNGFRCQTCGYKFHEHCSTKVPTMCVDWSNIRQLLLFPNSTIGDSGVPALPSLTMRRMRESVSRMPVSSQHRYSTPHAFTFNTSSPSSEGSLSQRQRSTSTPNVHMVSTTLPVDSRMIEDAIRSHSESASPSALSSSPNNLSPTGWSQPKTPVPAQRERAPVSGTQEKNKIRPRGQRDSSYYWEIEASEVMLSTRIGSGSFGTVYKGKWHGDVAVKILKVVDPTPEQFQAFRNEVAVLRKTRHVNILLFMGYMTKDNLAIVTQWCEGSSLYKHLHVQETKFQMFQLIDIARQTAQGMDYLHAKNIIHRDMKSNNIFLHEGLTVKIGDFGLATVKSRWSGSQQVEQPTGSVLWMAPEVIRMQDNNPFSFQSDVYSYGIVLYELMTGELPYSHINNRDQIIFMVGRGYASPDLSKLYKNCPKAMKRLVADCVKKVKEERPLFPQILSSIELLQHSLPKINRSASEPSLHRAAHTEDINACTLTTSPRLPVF
Summary of the method: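 Raf kinases phosphorylating biotin-MEK1, reaction started with ATP at 100 μM final. Compounds tested at 8 points by serial dilution from a 0.1 mM DMSO stock.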

CYP3A4(BQ) = CYP3A4(BQ) (Homo sapiens, UniProt P08684); experiment: CYP3A4(BQ) inhibition (fluorescent substrate); format: in vitro ADME; details: read-out: Cyp IC50 3A4(BQ)
Chain of CYP3A4(BQ) (P08684 whole entry): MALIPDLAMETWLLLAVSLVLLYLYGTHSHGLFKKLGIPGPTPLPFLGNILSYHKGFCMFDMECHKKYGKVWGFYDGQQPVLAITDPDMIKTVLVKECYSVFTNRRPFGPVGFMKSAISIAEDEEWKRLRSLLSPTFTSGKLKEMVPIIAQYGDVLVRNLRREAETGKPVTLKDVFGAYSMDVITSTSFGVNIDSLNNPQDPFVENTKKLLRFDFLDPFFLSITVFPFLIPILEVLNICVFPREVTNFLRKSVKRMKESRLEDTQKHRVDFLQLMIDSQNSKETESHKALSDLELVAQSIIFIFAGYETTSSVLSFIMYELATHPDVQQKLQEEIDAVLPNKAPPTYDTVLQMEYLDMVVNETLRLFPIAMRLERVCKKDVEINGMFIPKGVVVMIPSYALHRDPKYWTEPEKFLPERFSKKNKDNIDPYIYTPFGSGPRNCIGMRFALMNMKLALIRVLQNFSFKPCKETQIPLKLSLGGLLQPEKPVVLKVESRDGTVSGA
Summary of the method: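 Inhibition was followed as loss of fluorescent metabolite from a known substrate, with compound in co-factor mix as a 10-point 1:1 serial dilution (100 mM DMSO stock).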

CYP2C9 = CYP2C9 (Homo sapiens, UniProt P11712); experiment: CYP2C9 inhibition (fluorescent substrate); format: in vitro ADME; details: CYP2C9, MFC substrate; read-out: Cyp IC50 2C9
Chain of CYP2C9 (P11712 whole entry): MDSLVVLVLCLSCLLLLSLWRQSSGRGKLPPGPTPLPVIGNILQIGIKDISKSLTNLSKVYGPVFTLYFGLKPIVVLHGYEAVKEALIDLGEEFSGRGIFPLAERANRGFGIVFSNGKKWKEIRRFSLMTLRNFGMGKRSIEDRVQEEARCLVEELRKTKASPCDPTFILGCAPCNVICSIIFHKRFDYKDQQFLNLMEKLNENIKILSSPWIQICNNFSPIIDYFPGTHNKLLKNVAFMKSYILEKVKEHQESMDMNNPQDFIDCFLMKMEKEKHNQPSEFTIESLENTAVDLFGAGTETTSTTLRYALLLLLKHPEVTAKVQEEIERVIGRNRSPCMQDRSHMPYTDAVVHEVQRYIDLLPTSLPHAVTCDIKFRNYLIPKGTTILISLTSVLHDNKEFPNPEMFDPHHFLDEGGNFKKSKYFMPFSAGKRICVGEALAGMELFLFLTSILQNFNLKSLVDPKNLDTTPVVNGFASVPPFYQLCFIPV
Summary of the method: as §1

CYP1A2 = molecular target: T1, CYP1A2 (Homo sapiens, UniProt P05177); experiment: CYP1A2 inhibition (fluorescent substrate); format: in vitro ADME; details: CYP1A2, CEC substrate; read-out: Cyp IC50 1A2
T1 sequence (P05177 1-516): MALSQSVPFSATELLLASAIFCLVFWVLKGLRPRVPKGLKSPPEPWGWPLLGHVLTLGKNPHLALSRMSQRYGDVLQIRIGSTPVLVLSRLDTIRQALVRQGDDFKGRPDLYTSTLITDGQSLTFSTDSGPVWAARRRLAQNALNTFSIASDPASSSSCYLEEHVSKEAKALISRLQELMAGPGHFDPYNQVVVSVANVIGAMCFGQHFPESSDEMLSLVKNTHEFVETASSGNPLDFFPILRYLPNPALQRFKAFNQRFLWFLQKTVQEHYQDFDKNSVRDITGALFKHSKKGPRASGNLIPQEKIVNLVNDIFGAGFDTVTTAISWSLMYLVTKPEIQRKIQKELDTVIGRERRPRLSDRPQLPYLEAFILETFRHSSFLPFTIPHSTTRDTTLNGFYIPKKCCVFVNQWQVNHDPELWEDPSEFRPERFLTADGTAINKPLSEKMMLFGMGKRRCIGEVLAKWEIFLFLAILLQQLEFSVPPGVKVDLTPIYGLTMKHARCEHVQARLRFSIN
Summary of the method: as §1

Chain of CYP2D6 (P10635 whole entry): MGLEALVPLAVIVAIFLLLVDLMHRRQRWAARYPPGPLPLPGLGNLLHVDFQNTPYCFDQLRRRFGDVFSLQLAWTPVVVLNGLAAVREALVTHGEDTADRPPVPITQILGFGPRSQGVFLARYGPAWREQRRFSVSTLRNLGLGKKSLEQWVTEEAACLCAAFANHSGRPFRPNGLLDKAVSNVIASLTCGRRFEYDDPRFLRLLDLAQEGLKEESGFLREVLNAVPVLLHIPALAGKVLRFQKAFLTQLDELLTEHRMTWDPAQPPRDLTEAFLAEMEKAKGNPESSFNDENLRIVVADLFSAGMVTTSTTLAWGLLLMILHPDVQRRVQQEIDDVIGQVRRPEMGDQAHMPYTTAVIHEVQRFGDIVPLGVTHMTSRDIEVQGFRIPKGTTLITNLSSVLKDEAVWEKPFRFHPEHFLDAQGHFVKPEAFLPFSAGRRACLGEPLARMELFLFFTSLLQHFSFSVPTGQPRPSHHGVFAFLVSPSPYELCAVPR

With `CCCS(=O)(=O)Nc1ccc(F)c(C(=O)c2c[nH]c3ncc(-c4ccc(N(C)C)nc4)cc23)c1F` [P-2229, Propane-1-sulfonic acid {3-[5-(6-dimethylamino-pyridin-3-yl)-1H-pyrrolo[2,3-b]pyridine-3-carbonyl]-2,4-difluoro-phenyl}-amide] as the molecule, how does the IC50 (CYP2D6) read?
The IC50 was > 10 µM.

What about the IC50 (CYP2C19) of the same molecule?
The IC50 was > 10 µM.

What about the “turbidity threshold (L, M, H) 7.4” value ([1]; HEPES pH 7.4) of the same molecule?
Its value is “M (moderate solubility if the threshold concentration is 31.3 μM to 250 μM)”.

And the “turbidity threshold (L, M, H) 4.5” value ([1]; SIF pH 4.5)?
Its value is “L (low solubility if the threshold concentration is <31.3 04)”.

What about the “turbidity threshold (L, M, H) 6.8” value ([1]; SIF pH 6.8) of the same molecule?
The value was “M (moderate solubility if the threshold concentration is 31.3 μM to 250 μM)”.

What about the “turbidity threshold (L, M, H) 1.4” value ([1]; buffer pH 1.4 (SGF)) of the same molecule?
Its value is “M (moderate solubility if the threshold concentration is 31.3 μM to 250 μM)”.

What about the IC50 (c-Raf-1) of the same molecule?
Its IC50 is < 0.1 µM.

And the IC50 (CYP3A4(BQ))?
Its IC50 is > 10 µM.

And the IC50 (CYP2C9)?
Its IC50 is 5 to 10 µM.

What about the IC50 (CYP1A2) of the same molecule?
Its IC50 is > 10 µM.
